Laboratory results from patent US7615238B2, “Plaster for the treatment of dysfunctions and disorders of nails, comprising sertaconazole” (Trommsdorff GmbH & Co. KG Arzneimitttel, priority 2001, dated 2009).

Test system: fungi such as Trichophyton mentagrophytes, Trichophyton rubrum, Candida albicans, Microsporum canis, Aspergillus niger
Assay: Efficacy against fungi in comparison with other antifungal agents
Settings: in most cases, Trichosporum, Alternaria, Acremonium, Fusarium, Scopulariopsis

Substance: (R,S)-1-[2-[(7-Chloro-3-benzo[b]thienyl)-methoxy]-2-(2,4-dichlorophenyl)-ethyl]-1H-imidazole [sertaconazole]
- efficacy against fungi in comparison with econazole, ketonazole, miconazole, or bifonazole: higher efficacy
